The values that follow come from patent US6492367B1, “Sulfamato hydroxamic acid metalloprotease inhibitor” (G. D. Searle & Company, priority 1999, dated 2002).

Some results are limits rather than exact numbers.

Data set [1] concerns advanced, rapidly progressive, treatment-refractory solid tumor cancers (colorectal, pancreatic, ovarian, prostate). As to conditions: cited from earlier work.
A further data set concerns the target T1, MMP-2 (Homo sapiens, UniProt P08253).
T1 sequence (P08253 110-660): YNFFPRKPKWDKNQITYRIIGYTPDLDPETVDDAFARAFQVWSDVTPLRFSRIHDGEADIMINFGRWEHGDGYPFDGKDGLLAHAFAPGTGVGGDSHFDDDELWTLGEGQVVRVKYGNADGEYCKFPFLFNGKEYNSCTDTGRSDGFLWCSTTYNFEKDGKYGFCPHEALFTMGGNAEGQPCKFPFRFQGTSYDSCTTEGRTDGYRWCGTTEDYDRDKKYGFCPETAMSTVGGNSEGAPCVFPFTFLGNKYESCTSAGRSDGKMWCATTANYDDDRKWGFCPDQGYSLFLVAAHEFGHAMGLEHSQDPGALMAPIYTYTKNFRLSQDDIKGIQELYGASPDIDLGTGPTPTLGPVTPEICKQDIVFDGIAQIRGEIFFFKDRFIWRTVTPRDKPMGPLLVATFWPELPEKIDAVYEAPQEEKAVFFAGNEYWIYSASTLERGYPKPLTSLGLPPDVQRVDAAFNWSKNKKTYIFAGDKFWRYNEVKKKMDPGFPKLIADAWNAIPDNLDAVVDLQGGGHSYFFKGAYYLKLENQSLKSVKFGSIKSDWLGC
Kind of data set: In vitro metalloprotease inhibition, fluorogenic MCA peptide substrate. As to conditions: Inhibition Table; room temperature, pH 7.5, 4 μM substrate.

The target of the next data set is T2, recombinant human MMP-1 (Homo sapiens, UniProt P03956).
T2 sequence (P03956 100-469): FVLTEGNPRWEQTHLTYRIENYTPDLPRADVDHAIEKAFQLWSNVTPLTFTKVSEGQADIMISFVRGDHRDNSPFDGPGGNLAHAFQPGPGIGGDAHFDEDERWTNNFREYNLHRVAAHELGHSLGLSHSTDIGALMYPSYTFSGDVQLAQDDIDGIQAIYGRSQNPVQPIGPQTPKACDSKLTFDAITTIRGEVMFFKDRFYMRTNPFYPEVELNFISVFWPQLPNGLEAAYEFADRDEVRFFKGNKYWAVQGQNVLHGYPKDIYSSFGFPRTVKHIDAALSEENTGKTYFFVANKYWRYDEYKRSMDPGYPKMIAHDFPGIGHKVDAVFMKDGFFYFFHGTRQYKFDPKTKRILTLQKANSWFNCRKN
The data set is described as above. As to conditions: Inhibition Table; room temperature, pH 7.5, 4 μM substrate.

The next data set has as its target recombinant human MMP-13 (Homo sapiens, UniProt P45452). Described as above. It counts as biochemical. As to conditions: Inhibition Table; room temperature, pH 7.5, 4 μM substrate. Here is the method:
The compounds prepared in the manner described in the Examples above were assayed for activity by an in vitro assay. Following the procedures of Knight et al., FEDS Lett. 296(3):263 (1992).
More specifically, recombinant human MMP-13 and MMP-1 enzymes were prepared in laboratories of the assignee following usual laboratory procedures. MMP-13 from a full length cDNA clone was expressed as a proenzyme using a baculovirus as discussed in V.A. Luckow, insect Cell Expression Technology, pages 183-218, in Protein Engineering: Principles and Practice, J. L. Cleland et al eds., Wiley-Liss, Inc., (1996). […]
In the absence of inhibitor activity, a fluorogenic peptide was cleaved at the gly-leu peptide bond, separating the highly fluorogenic peptide from a 2,4-dinitrophenyl quencher, resulting in an increase of fluorescence intensity (excitation at 328 nm/emission at 415 nm). Inhibition was measured as a reduction in fluorescent intensity as a function of inhibitor concentration, using a Perkin Elmer L550 plate reader. The IC50 values were calculated from those values. […]

Protocol for MMP-2: The enzyme substrate is a methoxycoumarin-containing polypeptide having the following sequence:
MCA-ProLeuGlyLeuDpaAlaArgNH2, wherein MCA is methoxycoumarin and Dpa is 3-(2,4-dinitrophenyl)-L-2,3-diaminopropionyl alanine.
Assays were carried out at room temperature, and dimethyl sulfoxide (DMSO) at a final concentration of 1 percent was used to dissolve inhibitor compound.
The assayed inhibitor compound in DMSO/buffer solution was compared to an equal amount of DMSO/buffer with no inhibitor as control using Microfluor T White Plates (Dynatech). The inhibitor or control solution was maintained in the plate for minutes and the substrate was added to provide a final concentration of 4 μM.

For the compound `CNC(=O)[C@@H](NC(=O)[C@H](CC(C)C)[C@H](O)C(=O)NO)C(C)(C)C` [marimastat, Marimastat], the “most common drug-related toxicity” value in data set [1] (Phase I/II clinical trials) was “musculoskeletal pain and stiffness”. In data set [1] (Phase I/II studies, patients with advanced solid tumor cancers), the “cancer-specific antigens used as surrogate markers for biological activity” value is on record as “dose-related reduction in the rise of cancer-specific antigens”.

For “4-[[4-[[(3R,5R)-rel-3,5-Dimethyl-1-piperidinyl]carbonyl]-1-piperidinyl]sulfonyl]tetrahydro-N-hydroxy-2H-pyran-4-carboxamide and 4-[[4-[[(3R,5S)-rel-3,5-dimethyl-1-piperidinyl]carbonyl]-1-piperidinyl]sulfonyl]tetrahydro-N-hydroxy-2H-pyran-4-carboxamide [Example 49]”, the “ED50 MMP-2” value at MMP-2 is recorded as <10,000 nM. For the same compound, the “ED50 MMP-1” value at recombinant human MMP-1 is reported as <10,000 nM. For the same compound, at recombinant human MMP-13, the “ED50 MMP-13” value was <10,000 nM.
